# Patent US12151019B2, “Compositions for blood storage and transfusions” (Albert Einstein College of Medicine, priority 2020, dated 2024)
# Assay: Loading potential / solubility in PEG400/myristic acid vehicles and in water
# Format: physicochemical
# Settings: for dissolved material in aqueous solution: aqueous sample compared with Sample 3
# Description: Vehicles for loading the active ingredient were prepared as illustrated in samples 1-4. Myristic acid (solid flakes) was dissolved in PEG400 upon warming the mixture in a warm water bath. Shaking accelerated the formation of the resulting clear solution. The following four concentrations of myristic acid (MA) in PEG400 were prepared and evaluated. Samples 1, 2, 3 and 4 were all clear solutions when the samples were allowed to attain ambient temperatures. • a. 30 ml of PEG400+1.5 grams of MA (Sample 1) • b. 30 ml of PEG400+3 grams of MA (Sample 2) • c. 30 ml of PEG400+0.75 grams of MA (Sample 3) • d. 30 ml of PEG400+2.25 grams of MA (Sample 4)
# The samples as vehicles were loaded with NO enhancing agent. […] Samples 1 and 2 were initially liquid but formed a solid uniform gel over a period of several hours. Sample 3 was prepared by dissolving 0.75 grams of MA in 30 ml's of PEG400 and heating in a water bath (˜60-80 C) for ˜15 minutes. Sample 4 was prepared by dissolving 2.25 grams of MA in 30 mls of PEG400 and heating in a water bath (˜60-80 C) for ˜15 minutes. Both sample 3 and sample 4 were uniform solutions when the heating cycle was finished. Upon cooling sample 3 remained liquid whereas sample 4 formed a uniform gel.
# The addition of water to the PEG400/MA based formulation can create a nonuniform emulsion that poses difficulties for topical use.
# The Sample 3 solvent system was also tested as a vehicle for loading potential with the following low solubility reagents using the above method: quercetin, berberine, N-acetyl cysteine amide (NACA) and N-acetyl cysteine ethyl ester (NAC-ethylester).
Structure (SMILES),dissolved material in aqueous solution,solubility of quercetin in sample 3 or sample 4 (either sample 3 or sample 4 vehicle),"dissolving of added curcumin in PEG400/myristic acid (1.5 grams of Curcumin 95 added to Samples 1, 2, 3 (30 ml PEG400 + MA), warmed, shaken, cooled to ambient)"
O=c1c(O)c(-c2ccc(O)c(O)c2)oc2cc(O)cc(O)c12 [quercetin],minimal dissolved material,200-300 mg quercetin in 30 ml,
COc1ccc2cc3[n+](cc2c1OC)CCc1cc2c(cc1-3)OCO2 [berberine],minimal dissolved material,,
COc1cc(/C=C/C(=O)CC(=O)/C=C/c2ccc(O)c(OC)c2)ccc1O [Curcumin 95],,,dissolving of almost all of the added curcumin
